# Results: publication PMC4506092, “Utilizing Chemical Genomics to Identify Cytochrome b as a Novel Drug Target for Chagas Disease” (PLoS Pathogens, 2015)
# Key:
# [1] = Mammalian cell cytotoxicity assay (CellTiter-Glo); type: cell-based, mouse; conditions: mouse; NIH/3T3, 96 hours; read-out: CC50, 3T3 cell line
# Procedure: NIH/3T3 fibroblast cells were maintained in RPMI-1640 medium supplemented with 10% heat-inactivated FBS and 100 IU penicillin / 100 μg streptomycin per mL at 37°C / 5% CO2. For compound screening, cells were diluted to 4 × 10^4 cells / mL in assay medium (RPMI-1640, 5% FBS, and 100 IU penicillin / 100 μg streptomycin per mL) and seeded at 50 μL / well into 384-well plates. Following overnight incubation, compounds were added to each well (0.2% DMSO final concentration) and plates were further incubated for 96 hours. Cell viability was assessed using the CellTiter-Glo Luminescent Cell Viability Assay (Promega). Measured luminescence values were normalized to the value obtained for 0.2% DMSO, and plotted against the corresponding compound concentration for half maximal cytotoxic concentration (CC50) value determination.
# [2] = molecular target: T. cruzi cytochrome bc1 (complex III), wild-type (Trypanosoma cruzi, UniProt Q9TED7); experiment: T. cruzi complex III activity (decylubiquinol / cytochrome c reaction), wild-type; type: biochemical; conditions: digitonin-permeabilized epimastigotes
# T. cruzi cytochrome bc1 (complex III), wild-type, sequence (Q4DU59 entry or part of it): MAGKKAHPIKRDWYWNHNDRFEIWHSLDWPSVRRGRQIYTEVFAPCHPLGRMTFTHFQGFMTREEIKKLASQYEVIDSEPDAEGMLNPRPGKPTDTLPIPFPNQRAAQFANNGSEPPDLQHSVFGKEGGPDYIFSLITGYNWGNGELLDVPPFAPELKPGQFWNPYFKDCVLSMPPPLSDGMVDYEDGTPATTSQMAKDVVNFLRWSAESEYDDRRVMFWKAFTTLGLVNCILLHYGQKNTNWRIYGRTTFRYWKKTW
# T. cruzi cytochrome bc1 (complex III), wild-type, sequence (Q9TED7 entry or part of it): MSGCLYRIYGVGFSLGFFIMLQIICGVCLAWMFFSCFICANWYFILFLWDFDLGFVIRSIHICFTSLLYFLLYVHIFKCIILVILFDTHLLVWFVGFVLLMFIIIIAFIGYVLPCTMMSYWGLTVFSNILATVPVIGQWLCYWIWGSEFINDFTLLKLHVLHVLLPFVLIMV
# Procedure: T. cruzi epimastigotes ([…], density of 5 × 10^7 parasites / mL) were harvested by centrifugation (800 × g for 5 minutes at 4°C) and resuspended at 10 mg / mL of protein in buffer A containing 0.1 mg digitonin / mg protein. The parasites were then incubated with the detergent for 10 minutes at 26°C. The pellet fraction was collected by centrifugation (13,000 × g for 5 min at 4°C) and immediately used in the complex III assay.
# Complex III activity was monitored using a coupled decylubiquinol / cytochrome c reaction. Decylubiquinone was first reduced to decylubiquinol as described. […] The reduction of cytochrome c was monitored at 550 nm using the SpectraMax Plus384 absorbance microplate reader. Blank samples containing all components excluding decylubiquinol were processed in parallel and absorbance values were subtracted from sample absorbance values to specifically measure […] reduction of cytochrome c. All sample and blank wells were prepared in triplicate. For IC50 determination, the slope of the linear portion of the corrected respiration trace was determined, and normalized to the slope obtained for 0.2% DMSO condition.
# in vivo = conditions: mouse
smiles,measurement,setting,value
CCc1c(C)c(C#N)c2nc3ccccc3n2c1O [GNF7686],CC50,[1],> 20000 nM
same,IC50,[2],400 nM
same,clearance,in vivo,53 mL/min/kg
same,bioavailability,in vivo; po,6%
